{
  "source": "paper PMC8121762",
  "about": "“Peptidomics of enteroendocrine cells and characterisation of potential effects of a novel preprogastrin derived-peptide on glucose tolerance in lean mice” (Peptides, 2021)",
  "key": {"lean mice": {"test_system": "lean mice", "experiment": "1st osmotic pump study: 28-day infusion, body weight, food intake, weekly IP GTT", "format": "in vivo, mouse", "settings": "n = 5/group", "description": "(§1) Three studies were performed to assess the in vivo efficacy of the ChgA 435−462a and Gast p59−79 (see Figure legends for specifics of each study). Peptides were administered by osmotic pumps implanted subcutaneously under isoflurane anaesthesia. Food intake was assessed using BioDaq (Research Diets) automated food intake cages. Intraperitoneal (IP) glucose tolerance tests (GTT) were performed by administering a 2 g/kg challenge of glucose and measuring blood glucose levels from the tail vein whereas oral GTT (OGTT) were performed using 1 g/kg glucose challenge. Insulin tolerance tests (ITT) were performed by administering a 0.75 U/kg dose of insulin IP to the mice and assessing blood glucose levels at 15, 30, 45, 60, 90 and 120 min post-insulin challenge.\nFig. 7 In vivo characterisation of novel peptides. (A-C) PK data of ChgA 435-462a, Gast p59-79, Sst 25-36. (D-G) Data from 1st osmotic pump study where n = 5/group. […] Body weights (E) and food intake (D) were measured throughout the study. Week 0 and day -7 represent baseline data prior to treatment onset. Glucose tolerance was assessed every 7 days after surgery via an IP GTT using a 2 g/kg glucose challenge. […] Statistical analysis performed using Kruskal-Wallis test with post-hoc Dunn tests. […] Mice singly housed and infused with either Gast p59-79 or vehicle for 7 days. […] Mice singly housed and infused with either Gast p59-79 or vehicle for 7 days. 2 g/kg IP GTT performed on day 7 (J, K) and 1 g/kg OGTT performed on day 14 (L, M). 0.75 U/kg ITT performed on day 21 (N, O). Body weights vs AUC during ITT on day 21 (P). Error bars represent SD. *P < 0.05, **p < 0.01, ***p < 0.005."}, "mice": {"test_system": "mice", "experiment": "Osmotic pump study 2: 7-day infusion, IP GTT", "format": "in vivo, mouse", "settings": "osmotic pump 7 days, 2 g/kg IP GTT on day 7, n = 8/group, vs vehicle, T test", "description": "as §1\nFig. 7 In vivo characterisation of novel peptides. (A-C) PK data of ChgA 435-462a, Gast p59-79, Sst 25-36. (D-G) Data from 1st osmotic pump study where n = 5/group. […] Body weights (E) and food intake (D) were measured throughout the study. Week 0 and day -7 represent baseline data prior to treatment onset. Glucose tolerance was assessed every 7 days after surgery via an IP GTT using a 2 g/kg glucose challenge. Results from IP GTT on day 28 shown in (F, G). Statistical analysis performed using Kruskal-Wallis test with post-hoc Dunn tests. (H, I) Results from osmotic pump study 2 where n = 8/group. […]"}, "primary mouse islets": {"test_system": "primary mouse islets", "experiment": "Islet secretion studies", "format": "cell-based", "settings": "100 nM peptide, 1 or 16.7 mM glucose, 45 min at 37 °C, LC–MS/MS, n = 9 per group, Mann-Whitney U test", "description": "Mice were culled by cervical dislocation and the pancreas inflated by […] injection of a 0.75 mg/mL collagenase V (Sigma-Aldrich) solution in HBSS before removal of the pancreas. The pancreas was incubated at 37 °C for 12 min to liberate islets. The digested tissue was washed in HBSS with 0.1 % BSA before islets were hand-picked under a light microscope. Islets were rested for 1 h by incubating at 37 °C in Krebs’s ringer buffer (KRB, 129 mM NaCl, 2 mM NaHCO3, 4.8 mM KCl, 1.2 mM KH2PO4, 2.5 mM CaCl2, 1.2 mM MgSO4, 10 mM HEPES and adjusted to pH 7.4 with 1 M NaOH.) with 0.1 % BSA and 5.5 mM glucose. Ten size matched islets were then transferred to a 2 mL protein LoBind Eppendorf tubes for 45 min at 37 °C with KRB + 0.001% BSA + one of the following: 1 mM glucose, 16.7 mM glucose, 1 mM glucose + 100 nM Gast p59−79 or 16.7 mM glucose + 100 nM Gast p59−79. At the end of the incubation the supernatant was removed and snap frozen. On the day of analysis all supernatants were defrosted, acidified with 30 μL of 1% FA (aq) (v/v) and extracted with SPE.\nPeptides were quantified on as in section 2.8.3. Table 2 details the peptides quantified as well as their product ions, precursor ions, collision energies and dwell times.\nFig. 9 Effect of Gast p59-79 on glucagon (A), insulin-1 (B) and SST-14 (C) secretion from isolated mouse islets. Data represents n = 9 per group. Statistical analysis was performed using a Mann-Whitney U test. Data expressed as peak area normalised to islet number."}},
  "note": "Where a SMILES comes first, the peptide text is derived from it. [ ]: non-standard residue; d: D form. pGlu = O=C1CC[C@@H](C(=O)O)N1",
  "data": [
    {"smiles": "CC[C@H](C)[C@H](NC(=O)[C@H](Cc1ccccc1)NC(=O)[C@H](Cc1c[nH]cn1)NC(=O)[C@H](CCC(N)=O)NC(=O)[C@@H]1CCCN1C(=O)CNC(=O)[C@H](CCC(N)=O)NC(=O)[C@@H]1CCCN1C(=O)CNC(=O)[C@H](CC(C)C)NC(=O)[C@@H]1CCC(=O)N1)C(=O)N[C@@H](C)C(=O)N[C@@H](CC(=O)O)C(=O)N[C@@H](CC(C)C)C(=O)N[C@@H](CO)C(=O)N[C@@H](CCCCN)C(=O)N[C@@H](CCCCN)C(=O)N[C@@H](CCC(N)=O)C(=O)N[C@@H](CCCNC(=N)N)C(=O)N1CCC[C@H]1C(=O)N[C@@H](CCCNC(=N)N)C(=O)O", "note": "[Gast p59−79] ([pGlu]LGPQGPQHFIADLSKKQRPR-OH; C-terminus assumed)", "values": [
      {"measurement": "food intake compared with controls", "setting": "lean mice; 6-8 week old male mice, BioDAQ cages, osmotic pump 28 days, ChgA 435-462a 0.3, Gast p59-79 0.8, exenatide 0.03 mg/kg/day, vs PBS", "value": "No significant differences"},
      {"measurement": "body weight compared with controls", "setting": "lean mice; 6-8 week old male mice, osmotic pump 28 days, ChgA 435-462a 0.3, Gast p59-79 0.8, exenatide 0.03 mg/kg/day, vs PBS", "value": "No significant differences"},
      {"measurement": "IP GTT AUC analyses", "setting": "lean mice; lean male mice, Gast p59-79 0.8 mg/kg/day, IP GTT 2 g/kg, Kruskal-Wallis with Dunn tests", "value": "did not reach significance"},
      {"measurement": "glucose tolerance in IP GTT (blood glucose)", "setting": "lean mice; lean male mice, osmotic pump 28 days, IP GTT 2 g/kg glucose every 7 days, ChgA 435-462a 0.3, Gast p59-79 0.8, exenatide 0.03 mg/kg/day, vs PBS", "value": "Small but significant improvements in individual time point glucose levels"},
      {"measurement": "glucose tolerance in IP GTT, second mouse cohort", "setting": "mice", "value": "modestly improves glucose tolerance"},
      {"measurement": "SST-14 secretion from isolated islets", "setting": "primary mouse islets", "value": "No significant effect"},
      {"measurement": "glucagon secretion from isolated islets", "setting": "primary mouse islets", "value": "No significant effect"},
      {"measurement": "insulin-1 secretion from isolated islets", "setting": "primary mouse islets", "value": "No significant effect"}
    ]}
  ]
}
